# How the values were obtained:
# [1] = test system: A2780 CR (cisplatin resistant) human ovarian tumor cell line; experiment: MTT assay, cell viability, 72 h, A2780 CR; assay type: cell-based; details: for IC50: MTT, 72 h, A2780 CR (cisplatin resistant), read-out: IC50 Values against A2780 CR; for Resistance factor: calculated from IC50 in A2780 CR and A2780 S
# Experimental: (§1) MTT assay. The IC50 values in 72 hours of the compounds on human ovarian tumor cell lines, A2780 S (cisplatin sensitive) and A2780 CR (cisplatin resistance) were identified by cell viability test. 6000 cells per well in 100 μL cell media were seeded. After 24 h, all supernatant was aspirated out. Then 200 μL of drug solution is added to the first column of each well, and 100 μL of medium were added into the remaining well. The 100 μL of drug solution from first column was taken and mix well with the next column by repeated pipetting using a multichannel pipettor. The last two columns were leaved without drug addition to serve as blank control. After 72 h, supernatants in each well was replaced with 100 μL of 10% MTT (3-(4,5-dimethylthiazol-2-yl)-2,5-diphenyltetrazolium bromide) tetrazolium reduction assay solution, and incubated for at least 45 minutes at 37° C. After aspirating incubated solution, 100 μL of DMSO was added into each well to dissolve formazan crystals. The plates were then read using plate reader at 570 nm. The in vitro cytotoxicity of three platinum complexes (1), (2) and (3) was evaluated against a pair human ovarian tumor cell lines, A2780 S (cisplatin sensitive) and A2780 CR (cisplatin resistant). For comparison, anticancer activity of cisplatin was also evaluated under the same conditions. The IC50 values and cell viability curves are shown in Table 3 and FIG. 5 respectively.
# [2] = test system: A2780 S (cisplatin sensitive) human ovarian tumor cell line; experiment: MTT assay, cell viability, 72 h, A2780 S; assay type: cell-based; details: read-out: IC50 Values against A2780 S
# Experimental: as §1
# [3] = background, literature; cited from earlier work
# [4] = background, literature; cited from earlier work; remark: listed apart in the source
IC50 [1] [µM],IC50 [2] [µM],Molecule,Resistance factor [1],"cytotoxicity compared with cisplatin against A2780 CR cells ([1]; A2780 CR cells, in words)",effectiveness as antiproliferative agent compared with cisplatin [3],renal toxicity compared with cisplatin [4]
8.83 ± 0.83,8.92 ± 0.58,"CC(C)N(C(=S)[S-])C(C)C.CC(C)N(C(=S)[S-])C(C)C.[Pt+2] [(3), [Pt(S2CN^i Pr2)2]]",1.00,,,
15 ± 1.21,16.4 ± 1.35,[Pt(S2CNBn2)2].py [(2)],0.92,,,

# The next lines start with the molecule.
Molecule,IC50 [1] [µM],IC50 [2] [µM],Resistance factor [1],"cytotoxicity compared with cisplatin against A2780 CR cells ([1]; A2780 CR cells, in words)",effectiveness as antiproliferative agent compared with cisplatin [3],renal toxicity compared with cisplatin [4]
N.N.[Cl][Pt][Cl] [Cisplatin],6.37 ± 1,0.33 ± 0.011,19.20,,,
"CC(C)CN(CC(C)C)C(=S)[S-].CC(C)CN(CC(C)C)C(=S)[S-].[Pt+2] [(1), [Pt(S2CN^i Bu2)2]]",5.91 ± 0.92,5 ± 0.097,1.18,better cytotoxicity than cisplatin,,
[Pt(ESDT)(Py)Cl],,,,,more effective as antiproliferative agent than cisplatin,much lower renal toxicity
